Data from ChEMBL document CHEMBL1153298, “Discovery of tetrahydro-cyclopenta[b]indole as selective LXRs modulator” (Bioorg Med Chem Lett, 2009).
Activity calls are given as the source filed them. The calls are words filed in the database; no cut-off is given here.

Experiments:
[1] = Plasma concentration in C57BL/6J mouse at 40 mg/kg/day, ip dosed for 5 days; type: ADME, organism-based; set-up: route intraperitoneal
[2] = biological target: Voltage-gated inwardly rectifying potassium channel KCNH2 (Homo sapiens, UniProt Q12809); experiment: Binding affinity to human ERG
Mus musculus [3] = experiment: Increase in plasma triglyceride level in C57BL/6J mouse at 10 mg/kg/day, ip dosed for 5 days measured 2 hrs after last dose; type: functional; details: route intraperitoneal
[4] = Plasma concentration in C57BL/6J mouse at 100 mg/kg/day, ip dosed for 5 days; type: ADME, organism-based; set-up: route intraperitoneal
Mus musculus [5] = experiment: Increase in plasma triglyceride level in C57BL/6J mouse at 100 mg/kg/day, ip dosed for 5 days measured 2 hrs after last dose; type: functional; details: route intraperitoneal
Mus musculus [6] = experiment: Increase in liver triglyceride level in C57BL/6J mouse at 40 mg/kg/day, ip dosed for 5 days measured 2 hrs after last dose; type: functional; details: route intraperitoneal
Mus musculus [7] = experiment: Increase in HDL-cholesterol level in C57BL/6J mouse at 100 mg/kg/day, ip dosed for 5 days measured 2 hrs after last dose; type: functional; details: route intraperitoneal
Mus musculus [8] = experiment: Increase in liver triglyceride level in C57BL/6J mouse at 100 mg/kg/day, ip dosed for 5 days measured 2 hrs after last dose; type: functional; details: route intraperitoneal
Cytochrome P450 3A4 = Cytochrome P450 3A4 (Homo sapiens, UniProt P08684); experiment: Binding affinity to CYP3A4; type: ADME
Mus musculus [9] = experiment: Increase in plasma triglyceride level in C57BL/6J mouse at 40 mg/kg/day, ip dosed for 5 days measured 2 hrs after last dose; type: functional; details: route intraperitoneal
Mus musculus [10] = experiment: Increase in HDL-cholesterol level in C57BL/6J mouse at 40 mg/kg/day, ip dosed for 5 days measured 2 hrs after last dose; type: functional; details: route intraperitoneal
Mus musculus [11] = experiment: Increase in liver triglyceride level in C57BL/6J mouse at 10 mg/kg/day, ip dosed for 5 days measured 2 hrs after last dose; type: functional; details: route intraperitoneal
[12] = Drug level in C57BL/6J mouse liver at 10 mg/kg/day, ip dosed for 5 days; type: ADME, organism-based; set-up: route intraperitoneal; details: read-out: Drug uptake
[13] = Drug level in C57BL/6J mouse liver at 100 mg/kg/day, ip dosed for 5 days; type: ADME, organism-based; set-up: route intraperitoneal; details: read-out: Drug uptake
Mus musculus [14] = experiment: Increase in HDL-cholesterol level in C57BL/6J mouse at 10 mg/kg/day, ip dosed for 5 days measured 2 hrs after last dose; type: functional; details: route intraperitoneal
[15] = Plasma concentration in C57BL/6J mouse at 10 mg/kg/day, ip dosed for 5 days; type: ADME, organism-based; set-up: route intraperitoneal
[16] = Drug level in C57BL/6J mouse liver at 40 mg/kg/day, ip dosed for 5 days; type: ADME, organism-based; set-up: route intraperitoneal; details: read-out: Drug uptake
[17] = biological target: T1, Oxysterols receptor LXR-alpha (Homo sapiens, UniProt Q13133); experiment: (§1) Transactivation of LXRalpha
T1 sequence (Q13133 whole entry): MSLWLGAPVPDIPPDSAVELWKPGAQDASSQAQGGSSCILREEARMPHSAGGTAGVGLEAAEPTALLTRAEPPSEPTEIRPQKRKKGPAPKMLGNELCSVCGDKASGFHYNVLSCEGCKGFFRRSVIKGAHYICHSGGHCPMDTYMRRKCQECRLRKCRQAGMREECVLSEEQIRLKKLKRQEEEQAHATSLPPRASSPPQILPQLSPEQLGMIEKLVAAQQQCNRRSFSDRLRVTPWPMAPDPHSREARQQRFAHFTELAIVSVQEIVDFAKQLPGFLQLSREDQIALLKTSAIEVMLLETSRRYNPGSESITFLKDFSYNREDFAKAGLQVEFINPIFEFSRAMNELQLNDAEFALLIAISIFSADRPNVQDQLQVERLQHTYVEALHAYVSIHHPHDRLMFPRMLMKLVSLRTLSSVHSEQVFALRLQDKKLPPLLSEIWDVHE

[18] = biological target: T1, Oxysterols receptor LXR-alpha; experiment: (§2) Binding affinity to LXRalpha
[19] = biological target: T2, Oxysterols receptor LXR-alpha (Homo sapiens) (UniProt Q13133); experiment: as §1
T2 sequence (whole entry): T1 sequence (Q13133 whole entry)

[20] = biological target: T2, Oxysterols receptor LXR-alpha (Homo sapiens); experiment: as §2

Cytochrome P450 3A4, sequence (P08684 whole entry): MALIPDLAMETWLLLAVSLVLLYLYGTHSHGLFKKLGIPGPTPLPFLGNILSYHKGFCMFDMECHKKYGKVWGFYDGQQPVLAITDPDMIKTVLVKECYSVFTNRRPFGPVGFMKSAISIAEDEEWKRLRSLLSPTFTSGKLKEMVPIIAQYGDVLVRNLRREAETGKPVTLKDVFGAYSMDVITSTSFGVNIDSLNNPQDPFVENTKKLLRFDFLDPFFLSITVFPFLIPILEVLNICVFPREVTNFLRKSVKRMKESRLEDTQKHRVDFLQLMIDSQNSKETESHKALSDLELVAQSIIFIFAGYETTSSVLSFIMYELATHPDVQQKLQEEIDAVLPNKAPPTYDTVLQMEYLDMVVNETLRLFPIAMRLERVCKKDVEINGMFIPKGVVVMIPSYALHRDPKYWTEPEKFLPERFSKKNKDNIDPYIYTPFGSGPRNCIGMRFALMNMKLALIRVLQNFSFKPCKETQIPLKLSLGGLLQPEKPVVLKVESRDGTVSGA
Voltage-gated inwardly rectifying potassium channel KCNH2, sequence (Q12809 whole entry): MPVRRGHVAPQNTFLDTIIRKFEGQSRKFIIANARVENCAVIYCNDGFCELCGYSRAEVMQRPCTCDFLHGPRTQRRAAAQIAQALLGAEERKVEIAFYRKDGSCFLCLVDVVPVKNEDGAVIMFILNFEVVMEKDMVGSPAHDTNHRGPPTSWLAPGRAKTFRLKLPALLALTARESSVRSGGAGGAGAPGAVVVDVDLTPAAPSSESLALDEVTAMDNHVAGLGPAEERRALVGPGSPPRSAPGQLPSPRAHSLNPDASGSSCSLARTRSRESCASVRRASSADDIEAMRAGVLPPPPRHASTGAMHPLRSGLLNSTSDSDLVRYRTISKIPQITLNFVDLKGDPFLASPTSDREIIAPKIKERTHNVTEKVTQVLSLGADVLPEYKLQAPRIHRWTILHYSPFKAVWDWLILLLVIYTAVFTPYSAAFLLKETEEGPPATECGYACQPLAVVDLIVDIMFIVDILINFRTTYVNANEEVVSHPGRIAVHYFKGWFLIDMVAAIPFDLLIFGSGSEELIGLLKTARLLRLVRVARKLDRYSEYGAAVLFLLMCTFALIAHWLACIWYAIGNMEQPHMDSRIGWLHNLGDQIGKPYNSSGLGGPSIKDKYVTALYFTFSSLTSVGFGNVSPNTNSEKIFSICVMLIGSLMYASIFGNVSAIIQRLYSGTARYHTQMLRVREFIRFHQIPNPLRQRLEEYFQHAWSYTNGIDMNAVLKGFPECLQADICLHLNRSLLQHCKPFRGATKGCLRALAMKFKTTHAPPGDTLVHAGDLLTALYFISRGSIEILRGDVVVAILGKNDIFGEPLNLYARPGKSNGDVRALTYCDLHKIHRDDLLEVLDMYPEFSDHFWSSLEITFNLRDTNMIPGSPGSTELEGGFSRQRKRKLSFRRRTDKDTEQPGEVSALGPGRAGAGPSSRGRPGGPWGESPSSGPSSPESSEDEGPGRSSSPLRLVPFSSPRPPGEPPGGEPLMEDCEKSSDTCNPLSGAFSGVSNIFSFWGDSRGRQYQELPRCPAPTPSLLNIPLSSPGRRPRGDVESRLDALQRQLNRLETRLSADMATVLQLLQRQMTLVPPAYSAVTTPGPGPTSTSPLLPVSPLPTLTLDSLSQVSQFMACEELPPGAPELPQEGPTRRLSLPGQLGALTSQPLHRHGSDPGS

Row | Structure (SMILES) | concentration at 120 h [12] | concentration at 120 h [15] | EC50 [17] | IC50 [18] | Activity (Mus musculus [3]) | Activity (Mus musculus [11]) | Activity (Mus musculus [14]) | further results
1 | O=S(=O)(c1ccccc1)N(CC(F)(F)F)c1ccc(C(O)(C(F)(F)F)C(F)(F)F)cc1 [T091317] | 7900 ng/g | 0.255 µg/mL | – | – | 20% | 270% | 23% | –
2 | N#Cc1noc([C@](F)([C@H]2Cc3[nH]c4ccc(Cl)cc4c3C2)S(=O)(=O)c2ccccc2)n1 (racemic) | – | – | 0.16 µM | 0.1 µM | – | – | – | –
3 | COC(=O)C(C)(C1CCCc2c([nH]c3ccc(Cl)cc23)C1)S(=O)(=O)c1ccccc1 (stereo not drawn) | – | – | – | – | – | – | – | Activity [19]: inactive; Activity [20]: inactive

Now from value to compound, other results behind:

Row | concentration at 120 h [12] | concentration at 120 h [15] | EC50 [17] | IC50 [18] | Structure (SMILES) | Activity (Mus musculus [3]) | Activity (Mus musculus [11]) | Activity (Mus musculus [14]) | further results
4 | 1130 ng/g | 0.18 µg/mL | – | – | Cc1nnc([C@](F)([C@H]2Cc3[nH]c4ccc(Cl)cc4c3C2)S(=O)(=O)c2ccccc2)o1 | 9% | 100% | 27% | concentration at 120 h [1]: 0.682 µg/mL; Activity [2]: Not Active; concentration at 120 h [4]: 2.15 µg/mL; Activity (Mus musculus [5]): -2%; Activity (Mus musculus [6]): -19%; Activity (Mus musculus [7]): 36%; Activity (Mus musculus [8]): 45%; Activity (Cytochrome P450 3A4): Not Active; Activity (Mus musculus [9]): 9%; Activity (Mus musculus [10]): 27%; concentration at 120 h [13]: 13200 ng/g; concentration at 120 h [16]: 5490 ng/g
5 | – | – | 1.26 µM | 1.63 µM | COC(=O)c1noc([C@](F)([C@H]2Cc3[nH]c4ccc(Cl)cc4c3C2)S(=O)(=O)c2ccccc2)n1 (racemic) | – | – | – | –
